According to patent US20250154144A1 (CHILDREN'S HOSPITAL MEDICAL CENTER, priority 2021, published 2025):
Like-named read-outs stand apart in the source and are kept apart here.

What was measured:
MOLM14 D835Y cells = test: cells; format: cell-based; details: 48 hours, Cell Titer Glo, read-out: MOLM14 D835Y IC50
MOLM14 F691L cells = test: cells; format: cell-based; details: read-out: MOLM14 F691L IC50
FLT3 = target: T1, FLT3 (Homo sapiens, UniProt P36888); test: RBC HotSpot Kinase Assay, FLT3
T1 sequence (P36888 610-943 limits assumed): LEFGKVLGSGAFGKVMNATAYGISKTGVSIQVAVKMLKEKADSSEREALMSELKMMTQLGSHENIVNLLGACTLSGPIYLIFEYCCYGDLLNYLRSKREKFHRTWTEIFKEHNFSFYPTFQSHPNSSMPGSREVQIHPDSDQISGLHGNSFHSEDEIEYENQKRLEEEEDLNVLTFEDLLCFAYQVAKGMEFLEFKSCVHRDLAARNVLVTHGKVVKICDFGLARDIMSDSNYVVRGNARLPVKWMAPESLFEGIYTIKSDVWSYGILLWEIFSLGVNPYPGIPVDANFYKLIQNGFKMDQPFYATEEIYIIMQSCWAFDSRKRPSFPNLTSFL

IRAK1 = IRAK1 (Homo sapiens, UniProt P51617); test: RBC HotSpot Kinase Assay, IRAK1; details: IRAK1 IC50
Sequence of IRAK1 (P51617 whole entry): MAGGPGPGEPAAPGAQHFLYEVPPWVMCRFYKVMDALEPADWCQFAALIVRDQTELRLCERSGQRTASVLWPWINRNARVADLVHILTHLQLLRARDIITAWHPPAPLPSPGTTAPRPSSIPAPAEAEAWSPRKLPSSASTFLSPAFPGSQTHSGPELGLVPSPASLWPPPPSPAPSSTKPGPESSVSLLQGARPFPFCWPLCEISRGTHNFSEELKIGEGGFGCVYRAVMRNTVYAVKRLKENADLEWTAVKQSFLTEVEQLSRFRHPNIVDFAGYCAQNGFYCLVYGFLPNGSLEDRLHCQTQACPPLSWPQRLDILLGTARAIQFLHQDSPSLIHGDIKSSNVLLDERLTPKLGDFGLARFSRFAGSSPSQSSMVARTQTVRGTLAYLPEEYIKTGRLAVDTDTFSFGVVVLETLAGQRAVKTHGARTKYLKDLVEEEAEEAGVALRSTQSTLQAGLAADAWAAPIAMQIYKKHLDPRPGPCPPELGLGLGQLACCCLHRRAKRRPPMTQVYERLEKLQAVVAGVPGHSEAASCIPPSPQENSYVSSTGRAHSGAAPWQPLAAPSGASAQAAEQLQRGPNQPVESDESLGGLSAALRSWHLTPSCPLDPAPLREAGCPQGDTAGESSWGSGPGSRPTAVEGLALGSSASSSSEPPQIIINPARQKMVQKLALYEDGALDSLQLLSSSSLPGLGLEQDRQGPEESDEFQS

IRAK4 = target: T2, IRAK4 (Homo sapiens, UniProt Q9NWZ3); test: RBC HotSpot Kinase Assay, IRAK4; details: IRAK4 IC50
T2 sequence (Q9NWZ3 1-460): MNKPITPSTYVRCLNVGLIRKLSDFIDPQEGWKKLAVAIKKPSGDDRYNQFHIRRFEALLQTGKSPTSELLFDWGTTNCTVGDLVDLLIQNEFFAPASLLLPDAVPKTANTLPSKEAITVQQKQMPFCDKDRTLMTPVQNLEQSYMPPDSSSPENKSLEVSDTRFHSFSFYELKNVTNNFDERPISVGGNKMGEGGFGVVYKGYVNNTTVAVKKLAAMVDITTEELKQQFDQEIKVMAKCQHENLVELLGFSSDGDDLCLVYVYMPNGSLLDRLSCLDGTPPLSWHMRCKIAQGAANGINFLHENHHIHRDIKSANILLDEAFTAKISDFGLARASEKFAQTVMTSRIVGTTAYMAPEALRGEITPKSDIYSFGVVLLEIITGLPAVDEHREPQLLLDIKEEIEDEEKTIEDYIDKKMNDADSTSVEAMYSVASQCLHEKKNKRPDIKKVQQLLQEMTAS

THP1 cells = test: Combination drug screening, Cell Titer Glo, 10 × 10 matrix, THP1 cells; format: cell-based; details: THP1 cells; for Excess HSA Score: 10 × 10
MOLM14(D835Y) cells = format: cell-based; details: MOLM14(D835Y) cells; for Excess HSA Score: 10 × 10
[1] = Homo sapiens, MOLM-14, 48 h, 48 hours, Cell Titer Glo
[2] = combination with (+)-BAY-1251152
[3] = combination with Eprenetapopt/APR-246
[4] = combination with Venetoclax (ABT-199)

Compound: CC(O)(c1cn2c(-c3cncc(N[C@H]4CNCC[C@@H]4F)n3)cnc2cn1)C(F)(F)F (single isomer, unassigned) [Compound 78]
- IC50 (MOLM14 D835Y cells): 193 nM
- IC50 (MOLM14 F691L cells; 48 hours, Cell Titer Glo): 386 nM
- IC50 (FLT3; read-out: FLT3 IC50): < 0.5 nM
- IC50 (IRAK1): 7 nM
- IC50 (IRAK4): < 0.5 nM

Compound: CC(C)Oc1ccn2c(-c3cncc(N[C@@H]4CCCNC4)n3)cnc2c1 [Compound 1, 6-(7-isopropoxyimidazo[1,2-a]pyridin-3-yl)-N-[(3R)-3-piperidyl]pyrazin-2-amine]
- IC50 (MOLM14 D835Y cells; Homo sapiens, MOLM-14, 48 h): 37 nM
- IC50 (MOLM14 F691L cells; [1]): 73 nM
- IC50 (FLT3; FLT3 IC50): < 0.5 nM
- IC50 (IRAK1): 111 nM
- IC50 (IRAK4): 2 nM

Compound: COc1ccn2c(-c3cncc(N[C@H]4CNC[C@@H]4F)n3)cnc2c1 [Compound 4, N-((3S,4S)-4-fluoropyrrolidin-3-yl)-6-(7-methoxyimidazo[1,2-a]pyridin-3-yl)pyrazin-2-amine]
- IC50 (MOLM14 D835Y cells; Homo sapiens, MOLM-14, 48 h): 77 nM
- IC50 (MOLM14 F691L cells; [1]): 244 nM
- IC50 (FLT3; FLT3 IC50): < 0.5 nM
- IC50 (IRAK1): 29 nM
- IC50 (IRAK4): 2 nM

Compound: FC(F)COc1ccn2c(-c3cncc(N[C@H]4CNC[C@@H]4F)n3)cnc2c1 [Compound 7]
- IC50 (MOLM14 D835Y cells; Homo sapiens, MOLM-14, 48 h): 69 nM
- IC50 (MOLM14 F691L cells; [1]): 217 nM
- IC50 (FLT3; FLT3 IC50): < 0.5 nM
- IC50 (IRAK1): 85 nM
- IC50 (IRAK4): 4 nM

Compound: FC(F)COc1ccn2c(-c3cncc(N[C@@H]4CCCNC4)n3)cnc2c1 [Compound 8, (R)-6-(7-(2,2-difluoroethoxy)imidazo[1,2-a]pyridin-3-yl)-N-(piperidin-3-yl)pyrazin-2-amine]
- IC50 (MOLM14 D835Y cells; Homo sapiens, MOLM-14, 48 h): 14 nM
- IC50 (MOLM14 F691L cells; [1]): 39 nM
- IC50 (FLT3; FLT3 IC50): < 0.5 nM
- IC50 (IRAK1): 42 nM
- IC50 (IRAK4): < 0.5 nM

Compound: F[C@H]1CNC[C@@H]1Nc1cncc(-c2cnc3cc(OC4CC4)ccn23)n1 [Compound 10, 6-(7-cyclopropoxyimidazo[1,2-a]pyridin-3-yl)-N-((3S,4S)-4-fluoropyrrolidin-3-yl)pyrazin-2-amine]
- IC50 (MOLM14 D835Y cells; Homo sapiens, MOLM-14, 48 h): 244 nM
- IC50 (MOLM14 F691L cells; [1]): 770 nM
- IC50 (FLT3; FLT3 IC50): < 0.5 nM
- IC50 (IRAK1): 24 nM
- IC50 (IRAK4): 9 nM

Compound: c1cn2c(-c3cncc(N[C@@H]4CCCNC4)n3)cnc2cc1OC1CC1 [Compound 11, (R)-6-(7-cyclopropoxyimidazo[1,2-a]pyridin-3-yl)-N-(piperidin-3-yl)pyrazin-2-amine]
- IC50 (MOLM14 D835Y cells; Homo sapiens, MOLM-14, 48 h): 43 nM
- IC50 (MOLM14 F691L cells; [1]): 109 nM
- IC50 (FLT3; FLT3 IC50): < 0.5 nM
- IC50 (IRAK1): 85 nM
- IC50 (IRAK4): 5 nM

Compound: COc1ccn2c(-c3ccnc(N[C@H]4CNCC[C@@H]4F)n3)cnc2c1 [Compound 30, N-((3S,4S)-4-fluoropiperidin-3-yl)-4-(7-methoxyimidazo[1,2-a]pyridin-3-yl)pyrimidin-2-amine]
- IC50 (MOLM14 F691L cells; Homo sapiens, MOLM-14, 48 h): 61 nM
- Excess HSA Score (THP1 cells; [2]): −655.1
- Excess HSA Score (THP1 cells; combination with AMG-232): −76.43
- Excess HSA Score (THP1 cells; combination with AZD-5363): −13.97
- Excess HSA Score (THP1 cells; [3]): 389.5
- Excess HSA Score (THP1 cells; combination with Ivosidenib): 59.9
- Excess HSA Score (THP1 cells; combination with Lenalidomide): −90.11
- Excess HSA Score (THP1 cells; combination with Palbociclib): −678.3
- Excess HSA Score (THP1 cells; combination with Prednisolone): 188.1
- Excess HSA Score (THP1 cells; combination with SNDX-5613): 1.322
- Excess HSA Score (THP1 cells; combination with TNO-155): 591.3
- Excess HSA Score (THP1 cells; combination with Trametinib): −203.6
- Excess HSA Score (THP1 cells; combination with Ulixertinib): −362.3
- Excess HSA Score (THP1 cells; [4]): −1632
- Comments (THP1 cells; combination with Ivosidenib): Antagonistic
- Comments (THP1 cells; combination with SNDX-5613): Additive
- Comments (THP1 cells; [4]): Synergistic
- Excess HSA Score (MOLM14(D835Y) cells; [2]): −230
- Excess HSA Score (MOLM14(D835Y) cells; combination with AMG-232): −524.3
- Excess HSA Score (MOLM14(D835Y) cells; combination with AZD-5363): −738.1
- Excess HSA Score (MOLM14(D835Y) cells; [3]): −284.6
- Excess HSA Score (MOLM14(D835Y) cells; combination with Ivosidenib): −74.07
- Excess HSA Score (MOLM14(D835Y) cells; combination with Lenalidomide): 299.3
- Excess HSA Score (MOLM14(D835Y) cells; combination with Palbociclib): −448.3
- Excess HSA Score (MOLM14(D835Y) cells; combination with Prednisolone): 3.447
- Excess HSA Score (MOLM14(D835Y) cells; combination with SNDX-5613): −303.5
- Excess HSA Score (MOLM14(D835Y) cells; combination with TNO-155): −922.2
- Excess HSA Score (MOLM14(D835Y) cells; combination with Trametinib): −313.7
- Excess HSA Score (MOLM14(D835Y) cells; combination with Ulixertinib): 14.83
- Excess HSA Score (MOLM14(D835Y) cells; [4]): −1291
- Comments (MOLM14(D835Y) cells; combination with Prednisolone): Antagonistic
- Comments (MOLM14(D835Y) cells; [4]): Synergistic
